The values that follow come from US20220380378A1 (ESSA Pharma, Inc., priority 2021, published 2022).

Data set [1] is described as follows: Microsomal stability assay, liver microsome half-life (rat). The data set is classed as in vitro ADME. The conditions noted are these: pH 7.4; rat liver microsomes 0.5 mg/mL, 1 μM compound, 37° C.; read-out: Liver microsome T1/2 Rat. An excerpt:
(§1) Microsomal Stability Assay: Microsomal stability assay is a widely used in vitro model to characterize the metabolic conversion by phase I enzymes, such as cytochrome P450 (CYP) enzymes. Since metabolism is known to be highly variable in different species, microsomal stability assay is commonly run in multiple species. Metabolic stability of testing compound can be evaluated using human, rat, mouse, or other animal liver or intestine microsomes to predict intrinsic clearance.
(§2) The assay was carried out in 96-well microtiter plates at 37° C. Reaction mixtures (25 μL) contained a final concentration of 1 μM test compound, 0.5 mg/mL liver microsomes protein, and 1 mM NADPH and/or 1 mM UDPGA (with alamethicin) in 100 mM potassium phosphate, pH 7.4 buffer with 3 mM MgCl2. The incubation was done with N=1, but duplicate incubation at each time point can be prepared if necessary. At each of the time points (for example, 0, 15, 30, and 60 minutes), 150 μL of quench solution (100% acetonitrile with 0.1% formic acid) with internal standard was transferred to each well. Besides the zero minute controls, mixtures containing the same components except the NADPH can also be prepared as the negative control. Verapamil was included as a positive control to verify assay performance. Plates were sealed, vortexed, and centrifuged at 4° C. for 15 minutes at 4000 rpm. The supernatant is transferred to fresh plates for LC/MS/MS analysis.
(§3) Summarized conditions: [Compound]=1 μM, [LM]=0.5 mg/mL, [NADPH]=1 mM and/or [UDPGA]=1 mM, Buffer=100 mM Potassium Phosphate, pH 7.4 with 3 mM MgCl2, Time=0, 15, 30, and 60 min, and Temperature=37° C.
(§4) All samples were analyzed on LC/MS/MS using an AB Sciex API 4000 instrument, coupled to a Shimadzu LC-20AD LC Pump system. Analytical samples were separated using a Waters Atlantis T3 dC18 reverse phase HPLC column (20 mm×2.1 mm) at a flow rate of 0.5 mL/min. The mobile phase consisted of 0.1% formic acid in water (solvent A) and 0.1% formic acid in 100% acetonitrile (solvent B).
(§5) The extent of metabolism is calculated as the disappearance of the test compound, compared to the 0-min time incubation. Initial rates are calculated for the compound concentration and used to determine half-life (t½). […]
(In general: Microsomes from liver hold many membrane-bound enzymes, among them those of drug oxidation.)

In the next data set the target is T1, androgen receptor (AR) (Homo sapiens, UniProt P10275, T878A).
T1 sequence (P10275 1-920 T878A): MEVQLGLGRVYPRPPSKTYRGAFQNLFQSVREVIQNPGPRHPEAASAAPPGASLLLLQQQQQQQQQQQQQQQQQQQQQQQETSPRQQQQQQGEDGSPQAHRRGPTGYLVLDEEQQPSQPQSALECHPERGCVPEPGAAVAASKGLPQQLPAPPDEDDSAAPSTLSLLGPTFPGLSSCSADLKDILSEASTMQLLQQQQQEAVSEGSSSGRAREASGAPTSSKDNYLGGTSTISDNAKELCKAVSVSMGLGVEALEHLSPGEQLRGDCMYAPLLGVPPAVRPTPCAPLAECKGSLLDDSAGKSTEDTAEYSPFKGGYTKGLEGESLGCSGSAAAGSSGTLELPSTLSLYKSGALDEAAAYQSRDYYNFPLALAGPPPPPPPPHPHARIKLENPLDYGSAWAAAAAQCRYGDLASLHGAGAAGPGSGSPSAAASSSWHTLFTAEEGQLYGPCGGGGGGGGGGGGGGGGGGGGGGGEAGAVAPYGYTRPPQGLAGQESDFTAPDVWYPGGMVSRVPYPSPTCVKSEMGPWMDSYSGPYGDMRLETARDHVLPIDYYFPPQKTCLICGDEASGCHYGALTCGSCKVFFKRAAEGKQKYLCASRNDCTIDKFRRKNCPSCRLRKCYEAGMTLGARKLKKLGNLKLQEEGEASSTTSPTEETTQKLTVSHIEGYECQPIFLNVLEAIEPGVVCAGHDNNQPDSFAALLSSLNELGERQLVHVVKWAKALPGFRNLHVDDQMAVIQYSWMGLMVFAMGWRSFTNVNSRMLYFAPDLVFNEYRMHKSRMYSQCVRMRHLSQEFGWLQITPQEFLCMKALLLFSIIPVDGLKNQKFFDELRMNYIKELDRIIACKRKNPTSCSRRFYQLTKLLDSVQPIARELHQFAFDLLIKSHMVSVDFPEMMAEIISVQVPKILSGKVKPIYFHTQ
The data set can be described thus: Androgen-induced PSA (6.1 kb)-luciferase reporter assay in LNCaP cells (R1881 1 nM). The data set is classed as cell-based. Details: endogenous in cells; host or cells: LNCaP. The conditions noted are these: 24 h, read-out: PSA-Luc IC50 Range. A digest of the protocol: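 LNCaP cells transiently transfected with PSA (6.1 kb)-luciferase for 24 h, pretreated 1 h with compound or DMSO, then stimulated with 1 nM R1881 for 24 h. Firefly luciferase in lysates normalized to protein content; IC50 relative to R1881-induced vehicle activity.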
Background: Reporter assays use an easily measured gene product as a stand-in for the process of interest.

Data set [2] is described as follows: Microsomal stability assay, liver microsome half-life (mouse). The data set is classed as in vitro ADME. The conditions noted are these: pH 7.4; mouse liver microsomes 0.5 mg/mL, 1 μM compound, 37° C.; read-out: Liver microsome T1/2 Mouse.
Source text: as §1, §2, §3, §4, §5

Data set [3] in a line: Microsomal stability assay, liver microsome half-life (human). The conditions noted are these: pH 7.4; human liver microsomes 0.5 mg/mL, 1 μM compound, 37° C.; read-out: Liver microsome T1/2 Human. The data set is classed as in vitro ADME.
Source text: as §1, §2, §3, §4, §5

Data set [4] in a line: Microsomal stability assay, liver microsome half-life (dog). Format: in vitro ADME. Particulars: pH 7.4; dog liver microsomes 0.5 mg/mL, 1 μM compound, 37° C.; read-out: Liver microsome T1/2 Dog.
Source text: as §1, §2, §3, §4
(§6) The extent of metabolism is calculated as the disappearance of the test compound, compared to the 0-min time incubation. Initial rates are calculated for the compound concentration and used to determine half-life (t½).

The nature of data set [5]: Microsomal stability assay, liver microsome half-life (monkey). The conditions noted are these: pH 7.4; monkey liver microsomes 0.5 mg/mL, 1 μM compound, 37° C.; read-out: Liver microsome T1/2 Monkey. Format: in vitro ADME.
Source text: as §1, §2, §3, §4, §6

A word on the IC50: it is the concentration needed to halve the response being measured. Turning to `CS(=O)(=O)Nc1nccc(COc2ccc3c(c2)CCC3c2cc(Cl)c(OCCCl)c(C#N)c2)n1` (stereo not drawn) [Compound A35, N-(4-(((1-(3-chloro-4-(2-chloroethoxy)-5-cyanophenyl)-2,3-dihydro-1H-inden-5-yl)oxy)methyl)pyrimidin-2-yl)methanesulfonamide], the half-life at 1 μM in data set [1], in data set [2], in data set [3], in data set [4] and in data set [5] was greater than 2 h in each case. In addition, the IC50 at androgen receptor (AR) fell in the range of 0.5 to 2 µM.

Take `CS(=O)(=O)Nc1nccc(COc2ccc3c(ccn3-c3cc(Cl)c(OCCCl)c(C#N)c3)c2)n1` [Compound A36, N-(4-(((1-(3-chloro-4-(2-chloroethoxy)-5-cyanophenyl)-1H-indol-5-yl)oxy)methyl)pyrimidin-2-yl)methanesulfonamide]: the half-life at 1 μM in data set [1], in data set [2], in data set [3], in data set [4] and in data set [5] was greater than 2 h in each case. Moreover, the half-maximal inhibitory concentration (IC50) on androgen receptor (AR) was less than 0.5 µM.

On to `CC(C)(c1ccc(OCc2ccnc(NS(C)(=O)=O)c2F)cc1)c1cc(Cl)c(OCCCl)c(C#N)c1` [Compound A48], for which the half-life at 1 μM in data set [1], in data set [2], in data set [3], in data set [4] and in data set [5] was greater than 2 h each time. On androgen receptor (AR), the IC50 is 0.5 to 2 µM.

`CC(C)(c1ccc(-c2ccc3nc(NS(C)(=O)=O)ncc3c2)cc1)c1cc(Cl)c(OCCCl)c(C#N)c1` [Compound A51, N-[6-(4-{2-[3-chloro-4-(2-chloroethoxy)-5-cyanophenyl]propan-2-yl}phenyl)quinazolin-2-yl]methanesulfonamide]: the half-life at 1 μM in data set [1] was greater than 2 h; in data set [2], greater than 2 h; in data set [3], greater than 2 h; in data set [4], 1.78 h; in data set [5], greater than 2 h. The IC50 on androgen receptor (AR) is less than 0.5 µM.

Regarding `CS(=O)(=O)NC12CC(COc3ccc4c(ccn4-c4cc(Cl)c(OCCCl)c(C#N)c4)c3)(C1)C2` [Compound A57, N-(3-(((1-(3-chloro-4-(2-chloroethoxy)-5-cyanophenyl)-1H-indol-5-yl)oxy)methyl)bicyclo[1.1.1]pentan-1-yl)methanesulfonamide], the half-life at 1 μM is greater than 2 h in data set [1]; greater than 2 h in data set [2]; 1.15 h in data set [3]; greater than 2 h in data set [4]; 1.13 h in data set [5]. Moreover, the half-inhibitory concentration (IC50) on androgen receptor (AR) is less than 0.5 µM.

With `CS(=O)(=O)N1CC(COc2ccc3c(ccn3-c3cc(Cl)c(OCCCl)c(C#N)c3)c2)C1` [Compound A59], the half-life at 1 μM in data set [1] is greater than 2 h; in data set [2], greater than 2 h; in data set [3], 0.183 h; in data set [4], 0.967 h; in data set [5], 0.117 h. Also, the IC50 on androgen receptor (AR) is less than 0.5 µM.

As to `CC(C)(c1ccc(OCc2cnc(NS(C)(=O)=O)nc2N2CCOCC2)cc1)c1cc(Cl)c(OCCCl)c(C#N)c1` [Compound A100], the half-life at 1 μM in data set [1] was 0.85 h; in data set [2], 1.6 h; in data set [3], greater than 2 h; in data set [4] it was greater than 2 h; in data set [5], 0.633 h. Besides, the IC50 on androgen receptor (AR) is less than 0.5 µM.

Consider `CC(C)(c1ccc(-c2ccc3nc(NS(C)(=O)=O)cnc3c2)cc1)c1cc(Cl)c(OCCCl)c(C#N)c1` [Compound A107, N-(6-(4-(2-(3-chloro-4-(2-chloroethoxy)-5-cyanophenyl)propan-2-yl)phenyl)quinoxalin-2-yl)methanesulfonamide], for which the half-life at 1 μM in data set [1], in data set [2], in data set [3], in data set [4] and in data set [5] was greater than 2 h throughout. Besides, on androgen receptor (AR), the half-inhibitory concentration (IC50) was less than 0.5 µM.

Consider `CC(C)(c1ccc(-c2ccn3nc(NS(C)(=O)=O)nc3c2)cc1)c1cc(Cl)c(OCCCl)c(C#N)c1` [Compound A113], for which the half-life at 1 μM in data set [1] is greater than 2 h; in data set [2], greater than 2 h; in data set [3], 1.93 h; in data set [4], greater than 2 h; in data set [5] it was greater than 2 h. Also, the IC50 on androgen receptor (AR) was in the range of 0.5 to 2 µM.

Regarding `CC(C)(c1ccc(-c2ccc3c(c2)CCN(S(C)(=O)=O)C3)cc1)c1cc(Cl)c(OCCCl)c(C#N)c1` [Compound A114], the half-life at 1 μM is greater than 2 h in data set [1]; greater than 2 h in data set [2]; greater than 2 h in data set [3]; 1.05 h in data set [4]; greater than 2 h in data set [5]. In addition, the IC50 on androgen receptor (AR) was 0.5 to 2 µM.

Consider `CS(=O)(=O)Nc1ncc2cc(-c3ccc(Oc4cc(Cl)c(OCCCl)c(C#N)c4)cc3)ccc2n1` [Compound A116, N-(6-(4-(3-chloro-4-(2-chloroethoxy)-5-cyanophenoxy)phenyl)quinazolin-2-yl)methanesulfonamide], for which the half-life at 1 μM in data set [1], in data set [2], in data set [3], in data set [4] and in data set [5] was greater than 2 h in each case. Besides, the IC50 at androgen receptor (AR) was 0.5 to 2 µM.

With `CS(=O)(=O)NC1CN(CCc2ccc3c(ccn3-c3cc(Cl)c(OCCCl)c(C#N)c3)c2)C1` [Compound A126, N-(1-(2-(1-(3-chloro-4-(2-chloroethoxy)-5-cyanophenyl)-1H-indol-5-yl)ethyl)azetidin-3-yl)methanesulfonamide], the half-life at 1 μM in data set [1] is 0.95 h; in data set [2], greater than 2 h; in data set [3] it was greater than 2 h; in data set [4] it was 0.733 h; in data set [5], 0.583 h. The IC50 at androgen receptor (AR) was 0.5 to 2 µM.
